Assay results: US9708314B2, “Heterocyclic amide compound” (NISSAN CHEMICAL INDUSTRIES, LTD., priority 2013, dated 2017)

Tests used:
Type in all cases: in vivo
Brassica campestris L. = experiment: Test Example 4: effect on crop by application to foliage (diluvial soil, plastic box); details: application to foliage, 320 g/ha
How it was run: (§1)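 Plants were grown in sterilized diluvial soil in a greenhouse at 25-30° C for 14 days, then sprayed on stems and leaves with water-diluted emulsion formulation at set rates in g/ha. Weed control and crop injury were scored 3 weeks after treatment on a 0-5 herbicidal-ratio scale, from 0 (≤5%) to 5 (≥90%).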

[1] = tested on: Beta vulgaris ssp. vulgaris; experiment: as above; details: application to foliage, 320 g/ha
How it was run: as §1

Glycine max = experiment: as above; details: application to foliage, 320 g/ha
How it was run: as §1

Zea mays = experiment: as above; details: application to foliage, 320 g/ha
How it was run: as §1

[2] = tested on: directly sowed Oryza sativa; experiment: as above; details: application to foliage, 320 g/ha
How it was run: as §1

Triticum aestivum = experiment: as above; details: application to foliage, 320 g/ha
How it was run: as §1

[3] = tested on: Echinochloa oryzacola Vasing.; experiment: Test Example 2: herbicidal activity, application during weed generation in submerged conditions; details: Eighteenth Table; application herbicide amount 320 g/ha
How it was run: (§2)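 Mixed sowings in flooded alluvial soil (4 cm water), greenhouse 25-30 °C; emulsifiable concentrate diluted in water applied to the water surface at the 1-2 leaf stage, rate in g/ha. Effect scored three weeks later on a 0-5 scale (5 = ≥90% herbicidal ratio, 0 = ≤5%).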

Scirpus juncoides = experiment: as above; details: Eighteenth Table; application herbicide amount 320 g/ha
How it was run: as §2

Monochoria vaginalis = experiment: as above; details: Eighteenth Table; application herbicide amount 320 g/ha
How it was run: as §2

SMILES | effect on crop, g (Brassica campestris L.) (Brassica campestris L.) | effect on crop, f (Beta vulgaris ssp. vulgaris) [1] | effect on crop, c (Glycine max) (Glycine max) | effect on crop, b (Zea mays) (Zea mays) | effect on crop, d (directly sowed Oryza sativa) [2] | effect on crop, e (Triticum aestivum) (Triticum aestivum) | A (Echinochloa oryzicola Vasing.) herbicidal ratio grade [3] | B (Scirpus juncoides) herbicidal ratio grade (Scirpus juncoides) | C (Monochoria vaginalis) herbicidal ratio grade (Monochoria vaginalis)
C#CCSc1nnc2c(C(=O)Nc3nnnn3C)ccc(C(F)(F)F)n12 [2-103] | 3 (Herbicidal ratio of 40% or more and less than 70%) | 5 (Herbicidal ratio of 90% or more (almost completely withered)) | 0 (Herbicidal ratio of 5% or less (almost no effect)) | 2 (Herbicidal ratio of 20% or more and less than 40%) | 4 (Herbicidal ratio of 70% or more and less than 90%) | 0 (Herbicidal ratio of 5% or less (almost no effect)) | 4 (Herbicidal ratio of 70% or more and less than 90%) | 3 (Herbicidal ratio of 40% or more and less than 70%) | 4 (Herbicidal ratio of 70% or more and less than 90%)
CC#Cc1nnc2c(C(=O)Nc3nnnn3C)ccc(C(F)(F)F)n12 [2-106] | 3 (Herbicidal ratio of 40% or more and less than 70%) | 5 (Herbicidal ratio of 90% or more (almost completely withered)) | 0 (Herbicidal ratio of 5% or less (almost no effect)) | 0 (Herbicidal ratio of 5% or less (almost no effect)) | 4 (Herbicidal ratio of 70% or more and less than 90%) | 0 (Herbicidal ratio of 5% or less (almost no effect)) | 1 (Herbicidal ratio of 5% or more and less than 20%) | 2 (Herbicidal ratio of 20% or more and less than 40%) | 3 (Herbicidal ratio of 40% or more and less than 70%)
CC(=O)OCc1nnc2c(C(=O)Nc3nnnn3C)ccc(C(F)(F)F)n12 [2-107] | 4 (Herbicidal ratio of 70% or more and less than 90%) | 5 (Herbicidal ratio of 90% or more (almost completely withered)) | 0 (Herbicidal ratio of 5% or less (almost no effect)) | 3 (Herbicidal ratio of 40% or more and less than 70%) | 5 (Herbicidal ratio of 90% or more (almost completely withered)) | 0 (Herbicidal ratio of 5% or less (almost no effect)) | 2 (Herbicidal ratio of 20% or more and less than 40%) | 1 (Herbicidal ratio of 5% or more and less than 20%) | 2 (Herbicidal ratio of 20% or more and less than 40%)
Cn1nnnc1NC(=O)c1ccc(C(F)(F)F)n2c(C3(C)CC3(Cl)Cl)nnc12 (stereo not drawn) [2-110] | 4 (Herbicidal ratio of 70% or more and less than 90%) | 5 (Herbicidal ratio of 90% or more (almost completely withered)) | 0 (Herbicidal ratio of 5% or less (almost no effect)) | 4 (Herbicidal ratio of 70% or more and less than 90%) | 4 (Herbicidal ratio of 70% or more and less than 90%) | 3 (Herbicidal ratio of 40% or more and less than 70%) | 5 (Herbicidal ratio of 90% or more (almost completely withered)) | 5 (Herbicidal ratio of 90% or more (almost completely withered)) | 4 (Herbicidal ratio of 70% or more and less than 90%)
Cn1nnnc1NC(=O)c1ccc(C(F)(F)F)n2c(=O)n(C)nc12 [6-002] | 3 (Herbicidal ratio of 40% or more and less than 70%) | 3 (Herbicidal ratio of 40% or more and less than 70%) | 0 (Herbicidal ratio of 5% or less (almost no effect)) | 0 (Herbicidal ratio of 5% or less (almost no effect)) | 3 (Herbicidal ratio of 40% or more and less than 70%) | 0 (Herbicidal ratio of 5% or less (almost no effect)) | 3 (Herbicidal ratio of 40% or more and less than 70%) | 2 (Herbicidal ratio of 20% or more and less than 40%) | 3 (Herbicidal ratio of 40% or more and less than 70%)
CCn1nc2c(C(=O)Nc3nnnn3C)ccc(C(F)(F)F)n2c1=O [6-004] | 3 (Herbicidal ratio of 40% or more and less than 70%) | 2 (Herbicidal ratio of 20% or more and less than 40%) | 0 (Herbicidal ratio of 5% or less (almost no effect)) | 0 (Herbicidal ratio of 5% or less (almost no effect)) | 4 (Herbicidal ratio of 70% or more and less than 90%) | 1 (Herbicidal ratio of 5% or more and less than 20%) | 3 (Herbicidal ratio of 40% or more and less than 70%) | 0 (Herbicidal ratio of 5% or less (almost no effect)) | 2 (Herbicidal ratio of 20% or more and less than 40%)
CC(C)c1nc2c(C(=O)Nc3nnnn3C)ccc(C(F)(F)F)n2n1 [7-002] | 3 (Herbicidal ratio of 40% or more and less than 70%) | 4 (Herbicidal ratio of 70% or more and less than 90%) | 0 (Herbicidal ratio of 5% or less (almost no effect)) | 0 (Herbicidal ratio of 5% or less (almost no effect)) | 2 (Herbicidal ratio of 20% or more and less than 40%) | 0 (Herbicidal ratio of 5% or less (almost no effect)) | 4 (Herbicidal ratio of 70% or more and less than 90%) | 2 (Herbicidal ratio of 20% or more and less than 40%) | 2 (Herbicidal ratio of 20% or more and less than 40%)
